Laboratory results taken from patent publication US20130244255A1, “ANTIBODIES DIRECTED TO GPNMB AND USES THEREOF” (priority 2006, published 2013).

Experiments:
LOXIMVI = experiment: Clonogenic assay with 1.15.1-AE; type: cell-based, human
Protocol: (§1) Melanoma cell lines were plated onto flat bottom 96-well tissue culture plates (Becton Dickinson, Franklin Lakes, N.J., USA). On day 2 or when cells reach ˜25% confluency, various concentrations of unconjugated and Auristatin E-conjugated 1.15.1 were added to cells. MAb 2.6.2-AE was also used as a conjugated isotype control in this study. On day 5, the cells were trypsinized, transferred to 6-well tissue culture plates and incubated at 37° C. Plates were examined daily. On days 8-10, all plates were Giemsa stained and colonies on the plates were counted.

MEWO = experiment: Clonogenic assay with 1.15.1-AE; type: cell-based, human
Protocol: as §1

HT144 = experiment: Clonogenic assay with 1.15.1-AE; type: cell-based, human
Protocol: as §1

A2058 = experiment: Clonogenic assay with 1.15.1-AE; type: cell-based, human
Protocol: as §1

HEMNLP = experiment: Clonogenic assay with 1.15.1-AE; type: cell-based, human
Protocol: as §1

M14 = experiment: Clonogenic assay with 1.15.1-AE; type: cell-based, human
Protocol: as §1

human interleukin-8 = experiment: Plasma human IL-8 (ELISA) in SK-MEL-2 xenograft-bearing athymic mice; type: in vivo
Protocol: Interleukin-8 (IL-8) was measured by an enzyme-linked immunosorbent assay using a commercial kit (Human CXCL8/IL-8 Quantikine ELISA Kit, 3rd Generation; R&D Systems, Minneapolis, Minn.), which recognizes human, but not mouse, IL-8. Assays were conducted according to the manufacturer's instructions in which the IL-8 was detected by binding to IL-8 specific mAb pre-coated onto 96-well microliter plate. Standards and samples were pipetted into the wells and human IL-8 was bound by the immobilized antibody. After washing away the unbound substances, horseradish peroxidase-conjugated IL-8 specific polyclonal antibody was added to the wells. Following a wash, substrate solution was added and color developed; the plate was read on an ELISA plate reader. Results were calculated from a standard curve, generated by a four-parameter logistic curve fit, and expressed in picograms per milliliter. The lower limit of quantitation of the assay was 3.5 pg/mL and for each timepoint, n=3 mice. No human IL-8 could be detected in the blood of normal (non-tumor-bearing) athymic mice.
Plasma concentrations of human IL-8 were measured by the species-specific ELISA assay described in Materials and Methods. At the beginning of treatment (day 16), the human IL-8 level in plasma was 29.8 pg/ml. […] At day 30 (14 days after treatment), plasma IL-8 level was not detected and remained undetectable for the duration of the experiment (FIG. 26).

[1] = test system: SK-MEL-5 human melanoma xenograft; experiment: SK-MEL-5 human melanoma xenograft in athymic mice; type: in vivo
Protocol: The tumor inhibitory activity of the CR011-MMAE immunoconjugate was measured in an anti-tumor xenograft model using athymic mice, according to published methods (see Geran et al., Cancer Chemother. Rep. 3:1-104 (1972)). […] When tumors became established (10-20 days), the animals were pair-matched into groups (n=6 mice/group), and treatment was administered by intravenous injection (tail vein).
The SK-MEL-2 human melanoma (ATCC #HTB-68) was derived from a metastatic site (skin of thigh) of a person with malignant melanoma, and the SK− MEL-5 human melanoma (ATCC #HTB-70) was derived from a metastatic site (axillary lymph node) of a person with malignant melanoma (see Fogh et al., J. Natl. Cancer Inst. 59: 221-226 (1977)). Both cell lines were obtained from the American Type Culture Collection.
The effects of treatment were monitored by repetitive tumor measurements across 2 diameters with Vernier calipers; tumor size (in mg) was calculated using a standard formula, (W^2×L)/2, assuming a specific gravity of 1.0. Tumor size and body weights were assessed twice weekly. Mice were examined daily, however, and moribund animals were humanely euthanized if clinical indications of excessive pain or distress were noted (i.e., prostration, hunched posture, paralysis/paresis, distended abdomen, ulcerations, abscesses, seizures, and/or hemorrhages) Animals with tumors exceeding 2,000 mg were removed from the study and euthanized humanely.
Soon after the commencement of treatment with paclitaxel, however, significant tumor growth inhibition was observed (P≦0.039) at day 3 after treatment began, and this anti-tumor effect continued, producing 100% growth inhibition (stasis). The responses of SK-MEL-5-bearing test animals to vinblastine and paclitaxel were short-lived. After cessation of treatment at the maximally tolerated doses, tumors resumed rapid, progressive growth.

## CR011-vcMMAE: CR011 conjugated to monomethyl auristatin E through a protease cleavable valine-citrulline linker; approx. 4 drugs per antibody
LOXIMVI
  Clonogenic Assay with 1.15.1-AE IC50 in ng/mL: No effect
MEWO
  Clonogenic Assay with 1.15.1-AE IC50 in ng/mL: Inconclusive
HT144
  Clonogenic Assay with 1.15.1-AE IC50 in ng/mL: Inconclusive
A2058
  Clonogenic Assay with 1.15.1-AE IC50 in ng/mL: No effect
HEMNLP
  Clonogenic Assay with 1.15.1-AE IC50 in ng/mL: Inconclusive
M14
  Clonogenic Assay with 1.15.1-AE IC50 in ng/mL: Inconclusive
Human interleukin-8; 1 mg/kg single bolus, day 17.5 (1.5 days after treatment)
  plasma IL-8 level: 46.3 pg/mL
Human interleukin-8; 1 mg/kg single bolus, day 58 (42 days after treatment)
  plasma IL-8 level: 414.63 pg/mL
Human interleukin-8; 10 mg/kg single bolus, day 17.5 (1.5 days after treatment)
  plasma IL-8 level: 52.85 pg/mL
Human interleukin-8; 10 mg/kg single bolus, day 23 (7 days after treatment)
  plasma IL-8 level: 24.39 pg/mL
Human interleukin-8; 10 mg/kg single bolus, day 30 (14 days after treatment) and after, lower limit of quantitation 3.5 pg/mL
  plasma IL-8 level: not detected
[1]; 10 mg/kg/treatment, compared to PBS-treated controls (P=0.039)
  earliest significant anti-tumor effects, time after treatment began: 10 days
[1]; i.v., q4d×4
  doses at which complete regressions occurred: ≥ 2.5 mg/kg
[1]; i.v., CR011-vcMMAE 1.25 to 20 mg/kg q4d×4, vinblastine […] q4d×4
  anti-tumor effect (in words): Substantial tumor growth inhibition, as well as tumor growth delay and complete regressions
[1]; mouse, in vivo
  toxicity (mortality, body weight or weight gain): no indication of toxicity
